This note sets out measurements from publication PMC4441091 (Chemical & pharmaceutical bulletin, 2014).

The target in one experiment is T1, FASN-TE; rTE (recombinant TE domain of human FASN) (Homo sapiens, UniProt P49327). The experiment in a line: fluorogenic thioesterase assay. The class given is biochemical.
T1 sequence (P49327 2218-2511 limits assumed): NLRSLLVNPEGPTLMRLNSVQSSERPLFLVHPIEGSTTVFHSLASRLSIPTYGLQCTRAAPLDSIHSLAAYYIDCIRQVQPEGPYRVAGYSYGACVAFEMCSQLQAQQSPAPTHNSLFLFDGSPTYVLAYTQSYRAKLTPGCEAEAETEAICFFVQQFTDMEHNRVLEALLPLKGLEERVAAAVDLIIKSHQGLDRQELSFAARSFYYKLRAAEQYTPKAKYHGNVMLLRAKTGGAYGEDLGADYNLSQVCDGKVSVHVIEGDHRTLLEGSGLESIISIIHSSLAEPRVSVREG
Conditions: not given
Consider `O=C1C=CC(=O)C(Sc2ccccc2)=C1` [2g, 2-(Phenylthio)cyclohexa-2,5-diene-1,4-dione], for which the IC50 amounted to 0.2 µM. `CCCCCCCSC1=CC(=O)C=CC1=O` [2f, 2-(Heptylthio)cyclohexa-2,5-diene-1,4-dione]: the IC50 is 6.2 µM. On the same count and under the same terms, with `O=C1C=CC(=O)C(SC2CCCC2)=C1` [2e, 2-(Cyclopentylthio)cyclohexa-2,5-diene-1,4-dione] the figure was 6.4 µM. On to `CC1=CC(=O)c2c(O)cccc2C1=O` [1d, plumbagin], for which the IC50 is 10.9 µM. The same measure, in the same setting: with `O=C1C=C(N2CCOCC2)C(=O)c2c(O)cccc21` [1h, 8-Hydroxy-2-morpholinonaphthalene-1,4-dione] the figure was 26.4 µM. The same measure, in the same setting: for `CC1=CC(=O)c2ccccc2C1=O` [1c, menadione] the value was 21.9 µM; for `O=C1C=CC(=O)c2c(O)cccc21` [1g, juglone], 0.1 µM.

Still in this experiment, the particulars now being: read-out: rTE IC50; substrate 4-methylumbelliferyl heptanoate.
For the molecule `CC1=C(Br)C(=O)c2ccccc2C1=O` [1a, NS-4390], the IC50 worked out at 12.5 µM.

The target in another experiment is T1, FASN-TE; rTE (recombinant TE domain of human FASN). The experiment in a line: fluorogenic thioesterase assay. The class given is biochemical.
Conditions: not given
This is another data set of the same source.
For `O=C1C=CC(=O)c2c(O)ccc(O)c21` [1i, naphthazarin], the IC50 came out at 3.5 µM.
